Experimental data from PubChem BioAssay (NCI).
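The compound was tested at five concentrations on cells cultured in 96-well plates, with a 48-hour exposure period. Here, GI50 denotes the concentration required for 50% inhibition of growth. TGI marks complete inhibition of growth.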

Key:
Assay in all cases: DTP human tumour cell line panel, 48 h
[1] = system: 786-0 renal
[2] = system: A498 renal
[3] = system: A549 NSCLC
[4] = system: ACHN renal
[5] = system: BT-549 breast
[6] = system: CAKI-1 renal
[7] = system: CCRF-CEM leukemia
[8] = system: COLO 205 colon
[9] = system: DU-145 prostate
[10] = system: EKVX NSCLC
[11] = system: HCC-2998 colon
[12] = system: HCT-116 colon
[13] = system: HCT-15 colon
[14] = system: HL-60(TB) leukemia
[15] = system: HOP-62 NSCLC
[16] = system: HOP-92 NSCLC
[17] = system: HS 578T breast
[18] = system: HT29 colon
[19] = system: IGROV1 ovarian
[20] = system: K-562 leukemia
[21] = system: KM12 colon
[22] = system: LOX IMVI melanoma
[23] = system: M14 melanoma
[24] = system: MALME-3M melanoma
[25] = system: MCF7 breast
[26] = system: MDA-MB-231 breast
[27] = system: MDA-MB-435
[28] = system: MOLT-4 leukemia
[29] = system: NCI-H226 lung
[30] = system: NCI-H23 lung
[31] = system: NCI-H460 lung
[32] = system: NCI-H522 lung
[33] = system: NCI/ADR-RES ovarian
[34] = system: OVCAR-3 ovarian
[35] = system: OVCAR-4 ovarian
[36] = system: OVCAR-5 ovarian
[37] = system: OVCAR-8 ovarian
[38] = system: PC-3 prostate
[39] = system: RPMI-8226 leukemia
[40] = system: RXF 393 renal
[41] = system: SF-268 CNS
[42] = system: SF-295 CNS
[43] = system: SF-539 CNS
[44] = system: SK-MEL-2 melanoma
[45] = system: SK-MEL-28 melanoma
[46] = system: SK-MEL-5 melanoma
[47] = system: SK-OV-3 ovarian
[48] = system: SN12C renal
[49] = system: SNB-19 CNS
[50] = system: SNB-75 CNS
[51] = system: SR leukemia
[52] = system: SW-620 colon
[53] = system: T-47D breast
[54] = system: TK-10 renal
[55] = system: U251 CNS
[56] = system: UACC-257 melanoma
[57] = system: UACC-62 melanoma
[58] = system: UO-31 renal
[59] = system: MDA-N

CN1CCC(n2cnc(-c3ccc(F)cc3)c2-c2ccnc(N)n2)CC1
GI50 [1]: 11.6 µM
TGI [1]: > 25 µM
GI50 [2]: 5.85 µM
TGI [2]: > 23.5 µM
GI50 [3]: 7.47 µM
TGI [3]: > 25 µM
GI50 [4]: 5.71 µM
TGI [4]: > 25 µM
GI50 [5]: 15.3 µM
TGI [5]: > 25 µM
GI50 [6]: 7.63 µM
TGI [6]: > 24.1 µM
GI50 [7]: 14.4 µM
TGI [7]: > 25 µM
GI50 [8]: 7.07 µM
TGI [8]: > 25 µM
GI50 [9]: 10.7 µM
TGI [9]: > 25 µM
GI50 [10]: 10.3 µM
TGI [10]: > 25 µM
GI50 [11]: 8.98 µM
TGI [11]: > 25 µM
GI50 [12]: 8.19 µM
TGI [12]: > 25 µM
GI50 [13]: 10.5 µM
TGI [13]: > 25 µM
GI50 [14]: > 25 µM
TGI [14]: > 25 µM
GI50 [15]: 9.44 µM
TGI [15]: > 25 µM
GI50 [16]: 3.99 µM
TGI [16]: 24 µM
GI50 [17]: 15.3 µM
TGI [17]: > 25 µM
GI50 [18]: 6.2 µM
TGI [18]: > 25 µM
GI50 [19]: 6.48 µM
TGI [19]: > 20.7 µM
GI50 [20]: 11.6 µM
TGI [20]: > 25 µM
GI50 [21]: 8.64 µM
TGI [21]: > 25 µM
GI50 [22]: 6.95 µM
TGI [22]: > 25 µM
GI50 [23]: 11.7 µM
TGI [23]: > 25 µM
GI50 [24]: 8.77 µM
TGI [24]: > 25 µM
GI50 [25]: 1.32 µM
TGI [25]: > 25 µM
GI50 [26]: 13.5 µM
TGI [26]: > 25 µM
GI50 [27]: 8.82 µM
TGI [27]: > 25 µM
GI50 [28]: 12.6 µM
TGI [28]: > 25 µM
GI50 [29]: 10.9 µM
TGI [29]: > 25 µM
GI50 [30]: 10.6 µM
TGI [30]: > 25 µM
GI50 [31]: 7.01 µM
TGI [31]: > 25 µM
GI50 [32]: 8.57 µM
TGI [32]: > 25 µM
GI50 [33]: 7.55 µM
TGI [33]: > 25 µM
GI50 [34]: 11 µM
TGI [34]: > 25 µM
GI50 [35]: 7.04 µM
TGI [35]: > 25 µM
GI50 [36]: 13.8 µM
TGI [36]: > 25 µM
GI50 [37]: 6.3 µM
TGI [37]: > 25 µM
GI50 [38]: 9.28 µM
TGI [38]: > 25 µM
GI50 [39]: 16.6 µM
TGI [39]: > 25 µM
GI50 [40]: 9.74 µM
TGI [40]: > 25 µM
GI50 [41]: 10.4 µM
TGI [41]: > 25 µM
GI50 [42]: 9.36 µM
TGI [42]: > 25 µM
GI50 [43]: 14.2 µM
TGI [43]: > 25 µM
GI50 [44]: > 25 µM
TGI [44]: > 25 µM
GI50 [45]: > 23.8 µM
TGI [45]: > 25 µM
GI50 [46]: 11.6 µM
TGI [46]: > 25 µM
GI50 [47]: 10.8 µM
TGI [47]: > 25 µM
GI50 [48]: 6.43 µM
TGI [48]: > 25 µM
GI50 [49]: 10.3 µM
TGI [49]: > 25 µM
GI50 [50]: 10 µM
TGI [50]: > 23.9 µM
GI50 [51]: 10.4 µM
TGI [51]: > 25 µM
GI50 [52]: 5.93 µM
TGI [52]: > 25 µM
GI50 [53]: 16 µM
TGI [53]: > 25 µM
GI50 [54]: 7.89 µM
TGI [54]: > 25 µM
GI50 [55]: 8.53 µM
TGI [55]: > 25 µM
GI50 [56]: 11.7 µM
TGI [56]: > 25 µM
GI50 [57]: 14.1 µM
TGI [57]: > 25 µM
GI50 [58]: 2.55 µM
TGI [58]: 16.1 µM

Cc1csc2nc(-c3ccc(Cl)c([N+](=O)[O-])c3)c(/C=N/N=C(N)N)n12
TGI [1]: 2.93 µM
TGI [2]: 2.85 µM
TGI [3]: 3.54 µM
TGI [4]: 2.94 µM
TGI [8]: 2.37 µM
TGI [9]: 4.86 µM
TGI [10]: 2.93 µM
TGI [12]: 3.97 µM
TGI [13]: 3.02 µM
TGI [15]: 3.41 µM
TGI [16]: 1.38 µM
TGI [18]: 3.26 µM
TGI [21]: 4.75 µM
TGI [22]: 2.97 µM
TGI [23]: 3.38 µM
TGI [24]: 4.38 µM
TGI [25]: 3.67 µM
TGI [26]: 3.68 µM
TGI [27]: 3.13 µM
TGI [59]: 2.69 µM
TGI [30]: 3.29 µM
TGI [33]: 5.95 µM
TGI [35]: 3.4 µM
TGI [36]: 2.55 µM
TGI [37]: 1.57 µM
TGI [38]: 2.81 µM
TGI [42]: 2.78 µM
TGI [43]: 2.98 µM
TGI [44]: 2.48 µM
TGI [45]: 3.45 µM
TGI [46]: 2.94 µM
TGI [47]: 3.24 µM
TGI [48]: 3.68 µM
TGI [50]: 3.37 µM
TGI [52]: 1.35 µM
TGI [55]: 2.97 µM
TGI [56]: 1.82 µM
TGI [57]: 3.3 µM
TGI [58]: 2.33 µM

CNc1ccc(N)cc1C(=O)N1CCC[C@H]1CO
TGI [1]: > 100 µM
TGI [2]: > 100 µM
TGI [3]: > 100 µM
TGI [4]: > 100 µM
TGI [5]: > 100 µM
TGI [6]: > 100 µM
TGI [7]: > 100 µM
TGI [8]: > 100 µM
TGI [9]: > 100 µM
TGI [10]: > 100 µM
TGI [12]: > 100 µM
TGI [13]: > 100 µM
TGI [14]: > 100 µM
TGI [15]: > 100 µM
TGI [17]: > 100 µM
TGI [18]: > 100 µM
TGI [19]: > 100 µM
TGI [21]: > 100 µM
TGI [22]: > 100 µM
TGI [23]: > 100 µM
TGI [24]: > 100 µM
TGI [25]: > 100 µM
TGI [26]: > 100 µM
TGI [27]: > 100 µM
TGI [59]: > 100 µM
TGI [28]: > 100 µM
TGI [29]: > 100 µM
TGI [30]: > 100 µM
TGI [32]: > 100 µM
TGI [33]: > 100 µM
TGI [35]: > 100 µM
TGI [36]: > 100 µM
TGI [37]: > 100 µM
TGI [38]: > 100 µM
TGI [40]: > 100 µM
TGI [41]: > 100 µM
TGI [42]: > 100 µM
TGI [43]: > 100 µM
TGI [44]: > 100 µM
TGI [45]: > 100 µM
TGI [46]: > 100 µM
TGI [47]: > 100 µM
TGI [48]: > 100 µM
TGI [49]: > 100 µM
TGI [50]: > 100 µM
TGI [52]: > 100 µM
TGI [53]: > 100 µM
TGI [54]: > 100 µM
TGI [55]: > 100 µM
TGI [56]: > 100 µM
TGI [57]: > 100 µM
TGI [58]: > 100 µM
